“Also recorded” adds a separate entry of the source.
Tests used:
[1] = biological target: T1, Human recombinant ATG7 protein (Homo sapiens, UniProt O95352); experiment: Labeling of ATG7 with probes in vitro (click chemistry, in-gel fluorescence); type: binding; conditions: 3 hours; for labeling efficiency of ATG7 (intensity of the fluorescent bands): catalytically active ATG7 (0.5 μM), increasing probe concentrations, click chemistry, in-gel fluorescence
T1 construct: purchased R&D Systems
T1 sequence (O95352 1-703): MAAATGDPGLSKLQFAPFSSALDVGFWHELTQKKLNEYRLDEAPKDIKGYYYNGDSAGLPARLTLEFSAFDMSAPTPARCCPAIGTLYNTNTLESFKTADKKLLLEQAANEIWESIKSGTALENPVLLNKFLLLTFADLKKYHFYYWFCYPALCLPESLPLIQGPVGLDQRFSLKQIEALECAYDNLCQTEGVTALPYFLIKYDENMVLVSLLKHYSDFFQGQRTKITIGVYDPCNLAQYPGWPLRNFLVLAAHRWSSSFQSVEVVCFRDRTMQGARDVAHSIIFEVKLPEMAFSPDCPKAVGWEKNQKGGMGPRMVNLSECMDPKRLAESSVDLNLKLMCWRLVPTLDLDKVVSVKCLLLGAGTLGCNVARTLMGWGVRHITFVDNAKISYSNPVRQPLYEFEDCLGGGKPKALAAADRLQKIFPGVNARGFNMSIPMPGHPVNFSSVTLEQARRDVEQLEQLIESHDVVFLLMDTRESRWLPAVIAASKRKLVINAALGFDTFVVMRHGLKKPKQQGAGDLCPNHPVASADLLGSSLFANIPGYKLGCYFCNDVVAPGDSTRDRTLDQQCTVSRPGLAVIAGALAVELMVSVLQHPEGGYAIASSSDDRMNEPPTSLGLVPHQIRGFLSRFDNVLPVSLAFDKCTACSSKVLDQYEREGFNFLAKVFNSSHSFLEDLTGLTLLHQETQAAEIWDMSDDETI
Procedure: Following the synthesis, we incubated probes 1, 2, and 3 with catalytically active ATG7 (0.5 μM) for 3 hours. Then the click chemistry was followed to measure the levels of small molecule labeled ATG7. The intensity of the fluorescent bands was interpreted as the labeling efficiency of the probes.
(§1) Subsequently, increasing concentrations of compounds 4 and 5 were incubated with catalytically active ATG7 (0.5 μM) for 3 hours. […] We also conducted an ATP-competition reaction to test if compounds 4 and 5 utilize the ATP binding site for the covalent labeling. ATG7 was incubated with compound 4 or 5 in the presence or absence of ATP (100 μM) (FIG. 5B).
(§2) General Information. Human recombinant ATG7 protein was purchased from R&D Systems and used without further purification. In-gel fluorescence imaging was performed on a Typhoon 9600 (GE Healthcare).
(§3) Labeling of ATG7 with probes 1, 2, 3, 4, and 5 in vitro. ATG7 (0.4 μM) and TCEP (100 μM) in buffer containing HEPES (25 mM, pH 7.6), NaCl (50 mM), and MgCl2 (4 mM) were treated with increasing concentrations of each probe at room temperature (10 μL total volume) for 2 h. The reaction mixtures were treated with 1 μl of 10% SDS followed by 4 μL of click reaction mixture: CuSO4 (final conc. 1 mM), TBTA (final conc. 100 μM), sodium ascorbate (final conc. 1 mM), and Azide-Fluor-585 (final conc. 100 μM). The reaction mixture was incubated for 30 min at r.t., followed by the addition of 3 μL of 6× Laemmli loading buffer, and resolved by 12% SDS-PAGE. The bottom of the gel was cut to eliminate the excessive amount of Azide-Fluor-585. The acrylamide gel was kept in 50% ddH2O, 40% EtOH and 10% Acetic acid solution until it was subjected to the in-gel scanning fluorescence imaging (Typhoon 9600, GE Healthcare). The proteins in the gel were then visualized with Instant Blue™.

A549 cells = experiment: In-gel fluorescent detection of probe-labeled proteomes in live A549 cells; type: cell-based; conditions: 10 μM, 2 hours; for cell permeability and labeling of proteins in live cells: rhodamine azide click, in-gel fluorescence
Procedure: We investigated the labeling of proteins with the developed probes inside of live cells. To this end, A549 cells were treated with 10 μM of compounds 1, 2, 3, and 5 for 2 hours. Then, the lysate was treated with click reaction mixtures containing rhodamine azide.
A549 cells were grown in RPMI medium (Life Technologies) supplemented with 10% fetal bovine serum in 6-well plates. Confluent A549 cells (9.6 cm^2 per condition in 6-well plates) were washed with Dulbecco's Phosphate-Buffered Saline (DPBS, 3 mL) and the growth medium was replaced with RPMI medium containing each probe. After 2 h incubation time at 37° C., cells were washed with DPBS (3 mL). 160 μL of lysis buffer containing Tris HCl (25 mM, pH 7.6), NaCl (150 mM), 1% NP40, 1% sodium deoxycholate, 0.1% SDS, and protease inhibitor cocktail for mammalian cells (Sigma-Aldrich, 1:100 v/v) was added to each well of the 6-well plates, and cells were lysed on ice for 10 min. The gathered lysate was flown through 21G syringe for the complete breakdown. The complete lysis of the cells was monitored using Carl Zeiss Primo Vert inverted microscope. 10 μL of each cell lysate was treated with sodium dodecyl sulfate (final concentration 1%), followed by the incubation with the click chemistry reagents (CuSO4 (final conc. 1 mM), TBTA (final conc. 100 μM), sodium ascorbate (final conc. 1 mM) and Azide-Fluor-585 (final conc. 100 μM) for 30 min. Proteins were resolved by 10% SDS-PAGE, and subjected to in-gel scanning fluorescence imaging to visualize the covalent adducts. Total proteins in the gel were then visualized by staining the gel with Instant Blue™.

[2] = biological target: T1, Human recombinant ATG7 protein; experiment: ATP-competition reaction for covalent labeling of ATG7; type: binding; conditions: ATP (100 μM) present or absent
Procedure: as §1, §2
as §3, with “The bottom of the gel was cut to eliminate the excessive amount of Azide-Fluor-585.” left out, “The proteins in the gel were then visualized with Instant Blue™.” left out

labeling of ATG7 at 10 μM concentration ([1]; probe 10 μM, ATG7 (0.5 μM))	SMILES	labeling efficiency of ATG7 (intensity of the fluorescent bands) [1]	cell permeability and labeling of proteins in live cells (A549 cells)	labeling of ATG7 in the presence of ATP compared to ATP free conditions [2]	off-targets (non-specifically labeled proteins) in live cells (A549 cells)
little labeling	C#CCCCCNS(=O)(=O)C=C [Compound 1]	inefficient labeling	cell permeable and able to label proteins in live cells	–	–
–	C#CCNc1ncnc2c1ncn2[C@@H]1O[C@H](CNS(=O)(=O)C=C)[C@@H](O)[C@H]1O [Compound 2]	–	cell permeable and able to label proteins in live cells	–	–
–	C#Cc1cccc(Nc2ncnc3c2ncn3[C@@H]2O[C@H](CNS(=O)(=O)C=C)[C@@H](O)[C@H]2O)c1 [Compound 3]	higher labeling efficiency than 2; also recorded: much higher labeling efficiency than propargyl alkyne containing probes; also recorded: most potently labels ATG7	cell permeable and able to label proteins in live cells	–	–
–	C#CCNc1ncnc2c1ncn2[C@@H]1O[C@H](COS(=O)(=O)C=C)[C@@H](O)[C@H]1O [Compound 4]	–	–	significantly dropped; also recorded: utilize ATP binding site for the ATG7 labeling	–
–	C#Cc1cccc(Nc2ncnc3c2ncn3[C@@H]2O[C@H](COS(=O)(=O)C=C)[C@@H](O)[C@H]2O)c1 [Compound 5]	stronger intensity of the fluorescent bands than compound 4-treated ATG7; also recorded: much higher labeling efficiency than propargyl alkyne containing probes; also recorded: greater labeling potency than compound 4	cell permeable and able to label proteins in live cells	significantly dropped; also recorded: utilize ATP binding site for the ATG7 labeling	more numbers of off-targets when compared with compound 3; also recorded: strongest off target effects

— patent US10376515B2, “Analogs of adenosine monophosphate (AMP) as inhibitors of ubiquitin-like modifier-activating enzyme ATG7” (Northwestern University, priority 2016, dated 2019)
